Laboratory results from patent publication US12129258B2, “Diaryl macrocyclic compound and pharmaceutical composition, and use thereof” (PrimeGene (Beijing) Co., Ltd., priority 2018, dated 2024).
Like-named read-outs stand apart in the source and are kept apart here.

Legend:
Ba/F3 ETV6-NTRK2-G639R = assay: Cell proliferation inhibition (CellTiter-Glo), Ba/F3 ETV6-NTRK2-G639R; format: cell-based; settings: Mus musculus, BaF3, 72 h, 72 hrs, read-out: IC50 proliferation Ba/F3 ETV6-NTRK2-G639R
Method: (§1) 4. Inhibitory Effect of Compounds on the Proliferation of TRK Fusion and Mutant Stable Cell Lines (IC50)
(§2) Six cell lines including Ba/F3 LMNA-NTRK1-WT, Ba/F3 LMNA-NTRK1-G595R, Ba/F3 ETV6-NTRK2-WT, Ba/F3 ETV6-NTRK2-G639R, Ba/F3 ETV6-NTRK2-G639R and Ba/F3 ETV6-NTRK3-G623R were used in this experiment. For the six cell lines, the maximum test concentration of the compound was 1 μM, 1 μM, 10 μM, […], 1 μM and 10 μM, were 3.16-fold gradient diluted to obtain 9 samples.
(§3) The operation is described briefly as follows:
(§4) The cells in logarithmic growth phase were harvested to ensure that the cell viability was above 90%. 3000 cell/well were seeded in 96-well plate (Corning, Cat #3603). The cells were incubated overnight with 5% CO2, 95% humidity at 37° C. Then each well containing the cells of the 96-well plate was added the compound solutions, 3 wells for each compound solution, and continued to incubate for another 72 hrs. Then CellTiter-Glo® kit (Promega, Cat #G7572) was used to do the detection. First, the CTG reagent was melted and the cell plate was balanced to room temperature. The same volume of CTG solution was added into each well and vibrated on the shaker for 5 minutes to lyse the cells. The cell plate was kept at room temperature for 20 minutes to stabilize the luminescent signal. The luminescent value was collected by SpectraMax microplate detector (MD, 2104-0010A). […] Cell survival rate (%)=(1umdrug−1ummedium)/(1umcell−lummedium)×100%

[1] = Pharmacokinetic analysis in rats; format: in vivo, Male SD rats; settings: rat
Method: 6. Pharmacokinetic Analysis
Male SD rats were grouped, each group having 3 rats. […] Animals were fasted overnight from 10 hours before administration to 4 hours after administration. Blood samples were collected at 0.25, 0.5, 1, 2, 4, 8 and 24 hours after administration in the oral group and at 0.083, 0.25, 0.5, 1, 2, 4, 8 and 24 hours after injection in the intravenous group. After isoflurane anesthesia, 0.3 ml whole blood collected through the fundus vein plexus was put into the heparin anticoagulant tube. The sample was centrifuged at 4° C. at 4000 rpm for 5 min. The plasma was transferred into the centrifuge tube and stored at −80° C. until analysis. The extract from the plasma extracted by protein precipitation was analyzed by LC/MS/MS.

TRKA = TRKA (Homo sapiens (Human), UniProt P04629); assay: HTRF kinase activity assay, TRKA; format: biochemical; settings: 90 μM ATP
Method: (§5) The IC50 values of the compounds were calculated using XLFIT5 (IDBS) software.

Ba/F3 LMNA-NTRK1-G595R = assay: Cell proliferation inhibition (CellTiter-Glo), Ba/F3 LMNA-NTRK1-G595R; format: cell-based; settings: Mus musculus, BaF3, 72 h
Source text: as §1
(§6) Six cell lines including Ba/F3 LMNA-NTRK1-WT, Ba/F3 LMNA-NTRK1-G595R, Ba/F3 ETV6-NTRK2-WT, Ba/F3 ETV6-NTRK2-G639R, Ba/F3 ETV6-NTRK2-G639R and Ba/F3 ETV6-NTRK3-G623R were used in this experiment.
as §3
as §4, with “3000 cell/well were seeded in 96-well plate (Corning, Cat #3603). The cells were incubated overnight with 5% CO2, 95% humidity at 37° C.” left out, “signal.” for “signal. The luminescent value was collected by SpectraMax microplate detector (MD, 2104-0010A).”

Ba/F3 ETV6-NTRK2-WT = assay: Cell proliferation inhibition (CellTiter-Glo), Ba/F3 ETV6-NTRK2-WT; format: cell-based; settings: Mus musculus, BaF3, 72 h, 72 hrs, read-out: IC50 proliferation Ba/F3 ETV6-NTRK2-WT
Method: as §1, §2, §3, §4

TRKC = TRKC (Homo sapiens (Human), UniProt Q16288); assay: Mobility shift assay, TRKC kinase; settings: read-out: TRKC IC50, ATP 44.4 μM
Method: The inhibitory activity of compounds on TRKA, TRKB, TRKC and ROS1 kinase was analyzed with Mobility shift assay. The screening platform is MSA based microfluidic chip technology, which applies the basic concept of capillary electrophoresis to microfluidic environment. The substrate used in the experiment is a poly-peptide labeled with fluorescent. Under the catalysis of enzyme in the reaction system, the substrate is transformed into a product, with the charge changed accordingly. MSA technology could detect the substrate and the product with different charge separately.
The operation is described as follows:
The compound powder was dissolved in 100% DMSO (Sigma, Cat. D8418-1l) to prepare a 10 mM storage solution. […] The reaction was carried out at room temperature for 30 min/40 min/20 min/20 min respectively. After the reaction was terminated, the conversion rate was read by Caliper EZ Reader II.
Conversion %_Sample: conversion rate of sample;
Conversion %_Min: mean value of negative control, representing the conversion rate without enzyme activity;
Conversion %_Max: mean value of positive control, which represents the conversion rate reading without compound inhibition.
Taking the log value of concentration as X axis and the percentage inhibition rate as Y axis, the dose response curve was fitted by the analysis software GraphPad Prism 5, thus the IC50 value of each compound on enzyme activity inhibition was obtained.

Ba/F3 LMNA-NTRK1-WT = assay: Cell proliferation inhibition (CellTiter-Glo), Ba/F3 LMNA-NTRK1-WT; format: cell-based; settings: Mus musculus, BaF3, 72 h
Source text: as §1, §6, §3
as §4, with “3000 cell/well were seeded in 96-well plate (Corning, Cat #3603). The cells were incubated overnight with 5% CO2, 95% humidity at 37° C.” left out, “signal.” for “signal. The luminescent value was collected by SpectraMax microplate detector (MD, 2104-0010A).”

[2] = system: H1975 (L858R and T790M double mutation) cells; assay: Analysis of synergistic effect with EGFR inhibitor (Chou-Talalay), H1975 proliferation; format: cell-based; settings: combination with AZD9291, H1975 cells, 72 hr, Chou-Talalay index method
Method: 5. Analysis of Synergistic Effect
H1975 (L858R and T790M double mutation) cells were cultured in RPMI-1640 medium containing 10% FBS and 1% P/S ([…]). In the testing of the compounds, H1975 cells were seeded in 96-well plate (Corning, Cat #3917) at 3000 cell/well and the compounds were added at 195 μL solution/well. The initial test concentration of the compound was 10 μM, 3-fold gradient diluted to obtain 11 samples. 4 μL of each sample was added to 96 μL RPMI-1640 medium to dilute the 25× Compound. 5 μL was added to 195 μL cell medium (the final concentration of DMSO is 0.1%, v/v). After 72 hr incubation, 35 μL of CellTiter-Blue® (Promega, Cat #G8082) was added to the cells. The fluorescence signal was measured with FlexStation 3 (Molecular Devices) according to the instructions, and the IC50 value of the compound on cell proliferation inhibition was calculated by Graphpad Grism 5.0 software. The Chou-Talalay index method was used to analyze the effect of the combination. 0.9≤Combination Index (CI)≤1.1 means additive effect, 0.8≤CI<0.9 means low synergistic effect, 0.6≤CI<0.8 means medium synergistic effect, 0.4≤CI<0.6 means high synergistic effect, 0.2≤CI<0.4 means strong synergistic effect.

ALK-L1196M = ALK-L1196M (Homo sapiens (Human), UniProt Q9UM73, L1196M); assay: HTRF kinase activity assay, ALK-L1196M; format: biochemical; settings: 30 μM ATP
Method: as §5

Chain of TRKC (Q16288 other isoform, or with tags, fused parts or gaps isoform Q16288-3): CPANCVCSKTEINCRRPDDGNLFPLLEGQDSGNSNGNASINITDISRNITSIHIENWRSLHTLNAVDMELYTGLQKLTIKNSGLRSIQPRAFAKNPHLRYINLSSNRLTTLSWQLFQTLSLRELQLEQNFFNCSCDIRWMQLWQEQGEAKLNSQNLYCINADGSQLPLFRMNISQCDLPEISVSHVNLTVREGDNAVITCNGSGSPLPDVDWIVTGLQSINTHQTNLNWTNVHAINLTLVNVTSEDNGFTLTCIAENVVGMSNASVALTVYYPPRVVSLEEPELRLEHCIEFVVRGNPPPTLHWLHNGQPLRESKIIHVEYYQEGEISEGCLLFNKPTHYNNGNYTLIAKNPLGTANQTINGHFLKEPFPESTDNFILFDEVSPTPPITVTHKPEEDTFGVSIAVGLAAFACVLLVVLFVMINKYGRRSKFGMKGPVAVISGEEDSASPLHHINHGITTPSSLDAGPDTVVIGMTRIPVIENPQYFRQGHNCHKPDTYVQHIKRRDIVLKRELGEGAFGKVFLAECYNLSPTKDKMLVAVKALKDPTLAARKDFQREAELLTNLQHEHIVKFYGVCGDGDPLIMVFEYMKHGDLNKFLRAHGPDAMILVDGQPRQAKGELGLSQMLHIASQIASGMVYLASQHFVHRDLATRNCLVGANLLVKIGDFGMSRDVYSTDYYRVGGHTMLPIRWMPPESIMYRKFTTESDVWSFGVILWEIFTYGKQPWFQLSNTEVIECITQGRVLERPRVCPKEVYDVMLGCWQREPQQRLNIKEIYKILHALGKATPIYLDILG
Chain of ALK-L1196M (Q9UM73 19-1620 L1196M): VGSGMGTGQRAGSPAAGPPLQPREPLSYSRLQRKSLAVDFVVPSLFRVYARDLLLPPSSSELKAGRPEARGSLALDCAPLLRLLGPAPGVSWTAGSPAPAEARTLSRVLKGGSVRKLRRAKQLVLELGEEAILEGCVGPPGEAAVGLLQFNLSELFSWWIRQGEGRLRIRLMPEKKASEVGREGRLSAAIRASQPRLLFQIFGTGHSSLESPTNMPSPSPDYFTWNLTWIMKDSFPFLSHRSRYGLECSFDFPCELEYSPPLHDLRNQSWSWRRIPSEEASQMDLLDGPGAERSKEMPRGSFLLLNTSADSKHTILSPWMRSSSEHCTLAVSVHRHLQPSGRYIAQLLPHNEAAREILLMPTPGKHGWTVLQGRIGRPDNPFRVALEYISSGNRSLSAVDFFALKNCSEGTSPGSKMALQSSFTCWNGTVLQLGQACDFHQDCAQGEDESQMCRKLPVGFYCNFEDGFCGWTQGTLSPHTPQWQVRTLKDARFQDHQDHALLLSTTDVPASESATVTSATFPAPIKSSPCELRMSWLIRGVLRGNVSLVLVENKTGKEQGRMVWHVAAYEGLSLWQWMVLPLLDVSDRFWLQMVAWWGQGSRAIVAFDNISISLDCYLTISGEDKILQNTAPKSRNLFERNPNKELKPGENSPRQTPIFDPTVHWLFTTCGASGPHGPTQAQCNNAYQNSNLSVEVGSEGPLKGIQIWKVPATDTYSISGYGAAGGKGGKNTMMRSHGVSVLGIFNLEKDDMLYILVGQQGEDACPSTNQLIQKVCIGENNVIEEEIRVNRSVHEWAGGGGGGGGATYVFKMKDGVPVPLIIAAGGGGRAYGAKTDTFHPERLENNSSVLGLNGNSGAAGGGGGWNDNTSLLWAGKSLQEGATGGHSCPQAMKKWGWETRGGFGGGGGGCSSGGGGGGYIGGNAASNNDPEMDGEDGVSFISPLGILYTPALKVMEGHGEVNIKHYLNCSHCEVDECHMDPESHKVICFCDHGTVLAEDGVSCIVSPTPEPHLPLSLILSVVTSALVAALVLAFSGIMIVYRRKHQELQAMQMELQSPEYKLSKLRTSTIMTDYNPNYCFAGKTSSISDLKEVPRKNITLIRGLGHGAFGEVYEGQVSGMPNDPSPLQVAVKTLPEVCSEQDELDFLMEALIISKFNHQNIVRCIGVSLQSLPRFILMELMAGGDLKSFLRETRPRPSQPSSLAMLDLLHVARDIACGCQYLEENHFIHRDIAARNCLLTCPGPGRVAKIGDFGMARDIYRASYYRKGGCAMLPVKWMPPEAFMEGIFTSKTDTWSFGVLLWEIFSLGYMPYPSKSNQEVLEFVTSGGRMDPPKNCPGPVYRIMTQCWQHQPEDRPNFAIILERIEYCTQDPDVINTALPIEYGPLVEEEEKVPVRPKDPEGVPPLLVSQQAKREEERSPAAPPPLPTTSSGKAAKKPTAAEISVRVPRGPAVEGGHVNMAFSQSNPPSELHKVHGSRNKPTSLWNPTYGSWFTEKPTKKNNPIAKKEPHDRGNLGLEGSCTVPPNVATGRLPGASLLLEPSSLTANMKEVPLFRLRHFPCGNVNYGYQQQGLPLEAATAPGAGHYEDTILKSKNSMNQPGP
Chain of TRKA (P04629 33-796): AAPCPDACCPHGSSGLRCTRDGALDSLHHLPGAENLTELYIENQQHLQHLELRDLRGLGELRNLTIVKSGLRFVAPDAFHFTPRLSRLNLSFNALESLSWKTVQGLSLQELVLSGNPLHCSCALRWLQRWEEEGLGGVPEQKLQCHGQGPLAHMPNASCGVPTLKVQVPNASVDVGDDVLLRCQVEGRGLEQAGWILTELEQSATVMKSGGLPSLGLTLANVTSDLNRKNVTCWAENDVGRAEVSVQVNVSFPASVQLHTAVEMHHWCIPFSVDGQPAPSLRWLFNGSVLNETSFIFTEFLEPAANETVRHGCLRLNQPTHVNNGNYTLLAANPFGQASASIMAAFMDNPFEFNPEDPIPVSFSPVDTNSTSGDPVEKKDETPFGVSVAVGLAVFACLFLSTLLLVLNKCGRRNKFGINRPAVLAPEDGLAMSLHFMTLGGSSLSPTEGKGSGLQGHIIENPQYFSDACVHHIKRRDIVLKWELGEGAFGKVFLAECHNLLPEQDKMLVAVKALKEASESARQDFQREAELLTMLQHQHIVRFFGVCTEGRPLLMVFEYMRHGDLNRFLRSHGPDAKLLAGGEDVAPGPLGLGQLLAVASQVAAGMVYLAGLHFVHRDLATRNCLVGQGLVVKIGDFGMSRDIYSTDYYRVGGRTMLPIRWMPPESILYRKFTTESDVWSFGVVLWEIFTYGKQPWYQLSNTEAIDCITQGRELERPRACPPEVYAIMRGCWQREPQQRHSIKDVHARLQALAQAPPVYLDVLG

**Q.** Which results are given for `C[C@H]1COC(=O)c2cnn3ccc(nc23)N[C@H](C)c2cc(F)ccc2O1` [Example 1, (1^3E,1^4E,3R,6S)-4^5-fluoro-3,6-dimethyl-5,8-dioxa-2-aza-1(5,3)-pyrazolo[1,5-a]pyrimidina-4(1,2)-benzenacyclononaphan-9-one]?
**A.** IC50 (Ba/F3 ETV6-NTRK2-G639R; test batch marked #): 64.6 nM; IC50 (Ba/F3 ETV6-NTRK2-G639R; test batch marked *): 100 nM; AUC(0-inf) ([1]; male, SD, plasma, IV, 1 mg/kg): 621 ng·h/mL; C0 ([1]; male, SD, plasma, IV, 1 mg/kg): 217 ng/mL; half-life ([1]; male, SD, plasma, IV, 1 mg/kg): 1.7 h; clearance ([1]; male, SD, plasma, IV, 1 mg/kg, read-out: C1 (clearance)): 27.2 mL/min/kg; Vd ([1]; male, SD, plasma, IV, 1 mg/kg, read-out: Vdss): 4.26 L/kg; AUC(0-inf) ([1]; male, SD, plasma, PO, 5 mg/kg): 3550 ng·h/mL; Cmax ([1]; male, SD, plasma, PO, 5 mg/kg): 952 ng/mL; Tmax ([1]; male, SD, plasma, PO, 5 mg/kg): 0.667 h; half-life ([1]; male, SD, plasma, PO, 5 mg/kg): 1.84 h; bioavailability ([1]; male, SD, plasma, po, 5 mg/kg, PO, 5 mg/kg, read-out: F (oral bioavailability)): 100%; F (oral bioavailability) ([1]; PO, 5 mg/kg): 114%; PK performance compared with TPX-0005 ([1]; oral): better oral pharmacokinetic performance than that of TPX-0005; IC50 (TRKA): 0.13 nM; IC50 (Ba/F3 LMNA-NTRK1-G595R; test batch marked #): 1.34 nM; IC50 (Ba/F3 LMNA-NTRK1-G595R; test batch marked *): 7.8 nM; IC50 (Ba/F3 ETV6-NTRK2-WT; test batch marked #): 4.24 nM; IC50 (Ba/F3 ETV6-NTRK2-WT; test batch marked *): 7.8 nM; IC50 (TRKC): 0.61 nM; IC50 (Ba/F3 LMNA-NTRK1-WT; test batch marked #): 1.04 nM; IC50 (Ba/F3 LMNA-NTRK1-WT; test batch marked *): 5.4 nM; Combination Index (CI) [2]: 0.53-0.67; IC50 (ALK-L1196M): 50 nM
